# According to patent US11180474B2 (BRISTOL-MYERS SQUIBB COMPANY, priority 2016, dated 2021):
# Molecular target: T1, human TLR8 (Homo sapiens, UniProt Q9NR97)
# T1 construct: host or cells: HEK-Blue cells
# T1 sequence (Q9NR97 27-1041): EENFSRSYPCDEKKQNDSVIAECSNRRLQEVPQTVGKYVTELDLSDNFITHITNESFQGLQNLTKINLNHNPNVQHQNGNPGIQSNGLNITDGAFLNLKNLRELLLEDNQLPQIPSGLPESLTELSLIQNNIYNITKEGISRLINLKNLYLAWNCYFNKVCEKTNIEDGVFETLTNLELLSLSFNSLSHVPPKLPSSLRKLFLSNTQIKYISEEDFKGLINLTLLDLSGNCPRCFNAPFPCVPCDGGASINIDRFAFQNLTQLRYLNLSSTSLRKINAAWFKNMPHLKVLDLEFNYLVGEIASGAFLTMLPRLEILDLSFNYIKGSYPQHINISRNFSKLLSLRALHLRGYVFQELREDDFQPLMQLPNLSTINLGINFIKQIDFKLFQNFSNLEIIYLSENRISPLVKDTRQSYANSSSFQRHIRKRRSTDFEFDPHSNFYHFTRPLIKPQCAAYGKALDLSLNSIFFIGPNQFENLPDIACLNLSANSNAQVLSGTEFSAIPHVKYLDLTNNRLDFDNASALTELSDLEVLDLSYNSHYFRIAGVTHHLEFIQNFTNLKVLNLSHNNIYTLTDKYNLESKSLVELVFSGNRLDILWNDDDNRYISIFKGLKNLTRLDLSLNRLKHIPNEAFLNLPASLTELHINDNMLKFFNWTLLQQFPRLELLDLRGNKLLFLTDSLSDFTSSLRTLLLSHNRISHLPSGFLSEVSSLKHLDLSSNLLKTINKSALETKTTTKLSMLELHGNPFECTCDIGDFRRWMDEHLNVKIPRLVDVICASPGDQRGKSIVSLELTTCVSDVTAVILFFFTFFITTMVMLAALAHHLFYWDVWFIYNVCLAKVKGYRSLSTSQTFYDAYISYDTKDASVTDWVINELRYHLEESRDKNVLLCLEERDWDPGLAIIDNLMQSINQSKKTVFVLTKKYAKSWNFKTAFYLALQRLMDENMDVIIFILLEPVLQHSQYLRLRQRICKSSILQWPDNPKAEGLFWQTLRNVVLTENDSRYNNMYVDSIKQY
# Assay: TLR8 inhibition reporter assay (HEK-Blue cells, SEAP reporter, R848 stimulation)
# Type: cell-based
# Settings: HEK-Blue cells overexpressing human TLR8, R848 15.9 μM
# Procedure, shortened: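 22 h, 37° C, 5% CO2 incubation; compounds 0.05 nM-50 μM final; TLR7 cells 15000/well, TLR8 20,000/well. Readout: SEAP via HEK-Blue Detection medium. % inhibition = signal reduction versus agonist + DMSO wells, referenced to known inhibitor.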
row,IC50 [µM],Compound
1,11.2,"COc1ccc(-c2[nH]c3ccc(C4CCN(C(=O)CN5CCN(C)CC5)CC4)cc3c2C)cc1OC [Example 409, 1-(4-(2-(3,4-dimethoxyphenyl)-3-methyl-1H-indol-5-yl)piperidin-1-yl)-2-(4-methylpiperazin-1-yl)ethan-1-one]"
2,21.1,"COc1ccc(-c2[nH]c3ccc(C4CCN(C(=O)CN5CCCN(C)CC5)CC4)cc3c2C)cc1OC [Example 410, 1-(4-(2-(3,4-dimethoxyphenyl)-3-methyl-1H-indol-5-yl)piperidin-1-yl)-2-(4-methyl-1,4-diazepan-1-yl)ethan-1-one]"
3,0.036,"C#CCCCCC(=O)NCCN1CCC(c2ccc3[nH]c(-c4ccc(OC)c(OC)c4)c(C(C)C)c3c2)CC1 [Example 411, N-(2-(4-(2-(3,4-dimethoxyphenyl)-3-isopropyl-1H-indol-5-yl)piperidin-1-yl)ethyl)hept-6-ynamide]"
4,0.021,"COc1ccc(-c2[nH]c3ccc(C4CCN(C5CCN(C(C)C)CC5)CC4)cc3c2CC(F)(F)F)cc1OC [Example 412, 2-(3,4-dimethoxyphenyl)-5-(1′-isopropyl-[1,4′-bipiperidin]-4-yl)-3-(2,2,2-trifluoroethyl)-1H-indole]"
5,0.028,"CNCCN1CCC(c2ccc3[nH]c(-c4ccc(OC)c(OC)c4)c(CC(F)(F)F)c3c2)CC1 [Example 413, 2-(4-(2-(3,4-dimethoxyphenyl)-3-(2,2,2-trifluoroethyl)-1H-indol-5-yl)piperidin-1-yl)-N-methylethanamine]"
6,0.086,"CNCC(=O)N1CCC(c2ccc3[nH]c(-c4ccc(OC)c(OC)c4)c(CC(F)(F)F)c3c2)CC1 [Example 414, 1-(4-(2-(3,4-dimethoxyphenyl)-3-(2,2,2-trifluoroethyl)-1H-indol-5-yl)piperidin-1-yl)-2-(methylamino)ethanone]"
7,0.077,"CCN(CC)C(=O)C1CCCN(CC(=O)N2CCC(c3ccc4[nH]c(-c5ccc(OC)c(OC)c5)c(CC(F)(F)F)c4c3)CC2)C1 (stereo not shown) [Example 418, 1-(2-(4-(2-(3,4-dimethoxyphenyl)-3-(2,2,2-trifluoroethyl)-1H-indol-5-yl)piperidin-1-yl)-2-oxoethyl)-N,N-diethylpiperidine-3-carboxamide]"
8,0.047,"COc1ccc(-c2[nH]c3ccc(C4CCN(C(=O)CN5CCCC(C(=O)N(C)C)C5)CC4)cc3c2CC(F)(F)F)cc1OC (stereo not shown) [Example 419, 1-(2-(4-(2-(3,4-dimethoxyphenyl)-3-(2,2,2-trifluoroethyl)-1H-indol-5-yl)piperidin-1-yl)-2-oxoethyl)-N,N-dimethylpiperidine-3-carboxamide]"
9,0.025,"CCN(CC)C(=O)C1CCCN(CC(=O)N2CCC(c3ccc4[nH]c(-c5ccc(OC)c(OC)c5)c(CC(F)(F)F)c4c3)CC2)C1 (stereo not shown) [Example 420, 1-(2-(4-(2-(3,4-dimethoxyphenyl)-3-(2,2,2-trifluoroethyl)-1H-indol-5-yl)piperidin-1-yl)-2-oxoethyl)-N,N-diethylpiperidine-3-carboxamide]"
10,0.071,"CCN(CC)C(=O)C1CCCN(CC(=O)N2CCC(c3ccc4[nH]c(-c5ccc(OC)c(OC)c5)c(CC(F)(F)F)c4c3)CC2)C1 (stereo not shown) [Example 421, 1-(2-(4-(2-(3,4-dimethoxyphenyl)-3-(2,2,2-trifluoroethyl)-1H-indol-5-yl)piperidin-1-yl)-2-oxoethyl)-N,N-diethylpiperidine-3-carboxamide]"
